{"source": "BindingDB's records for doi:10.7270/Q2W37TVH", "about": "(Novartis Pharma, 1997)", "biological_target": "Dihydroorotate dehydrogenase (quinone), mitochondrial (Homo sapiens, UniProt Q02127)", "sequence (Q02127 whole entry)": "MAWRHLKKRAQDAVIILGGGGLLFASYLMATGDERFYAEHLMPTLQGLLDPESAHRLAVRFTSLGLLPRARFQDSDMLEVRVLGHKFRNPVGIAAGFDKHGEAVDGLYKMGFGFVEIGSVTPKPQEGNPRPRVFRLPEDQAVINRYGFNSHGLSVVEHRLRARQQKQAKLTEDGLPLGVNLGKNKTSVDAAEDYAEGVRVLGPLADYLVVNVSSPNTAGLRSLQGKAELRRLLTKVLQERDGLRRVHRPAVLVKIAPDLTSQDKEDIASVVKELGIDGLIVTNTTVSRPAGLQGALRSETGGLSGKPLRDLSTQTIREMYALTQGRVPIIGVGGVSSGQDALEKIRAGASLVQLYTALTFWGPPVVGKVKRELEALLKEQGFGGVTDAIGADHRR", "assay": "Spectrophotometric Assay", "from_the_text": "Spectrophotometric assay using crude human, recombinant DHODHase.", "data": [{"smiles": "N#C/C(C(=O)Nc1ccc(C(F)(F)F)cc1)=C1/CCOC1", "note": "[Tetrahydrofuranyl derivative, 7 (E)]", "values": [{"measurement": "IC50", "result": "> 50", "unit": "µM"}]}, {"smiles": "N#C/C(C(=O)Nc1ccc(C(F)(F)F)cc1)=C1/CCCCO1", "note": "[Tetrahydropyranyl derivative, 8 (E)]", "values": [{"measurement": "IC50", "result": "> 50", "unit": "µM"}]}, {"smiles": "N#C/C(C(=O)Nc1ccc(C(F)(F)F)cc1)=C1\\CCCCO1", "note": "[Tetrahydropyranyl derivative, 8 (Z)]", "values": [{"measurement": "IC50", "result": "> 50", "unit": "µM"}]}, {"smiles": "CC(=O)C(C#N)C(=O)Nc1ccccc1", "note": "(stereo not drawn) [Alpha-cyano-beta-hydroxy enamide, 2]", "values": [{"measurement": "IC50", "result": 15.2, "unit": "µM"}]}, {"smiles": "N#Cc1ccc(NC(=O)C(C#N)C(=O)C2CC2)cc1", "note": "(stereo not drawn) [Alpha-cyano-beta-hydroxy enamide, 6]", "values": [{"measurement": "IC50", "result": 0.6, "unit": "µM"}]}, {"smiles": "CC(C)(C)CCC(=O)C(C#N)C(=O)Nc1ccc(C(F)(F)F)cc1", "note": "(stereo not drawn) [Alpha-cyano-beta-hydroxy enamide, 5]", "values": [{"measurement": "IC50", "result": 0.13, "unit": "µM"}]}, {"smiles": "N#C/C(C(=O)Nc1ccc(C(F)(F)F)cc1)=C1\\CCCO1", "note": "[Tetrahydrofuranyl derivative, 7 (Z)]", "values": [{"measurement": "IC50", "result": "> 50", "unit": "µM"}]}, {"smiles": "CC(C)(C)C(=O)C(C#N)C(=O)Nc1ccc(C(F)(F)F)cc1", "note": "(stereo not drawn) [Alpha-cyano-beta-hydroxy enamide, 4]", "values": [{"measurement": "IC50", "result": 16.2, "unit": "µM"}]}, {"smiles": "CC(=O)C(C#N)C(=O)Nc1ccc(C#N)cc1", "note": "(stereo not drawn) [Alpha-cyano-beta-hydroxy enamide, 3]", "values": [{"measurement": "IC50", "result": 1.3, "unit": "µM"}]}]}
